Here are results for ten compounds from PubChem BioAssay (NCI).

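Results reflect a 48-hour exposure of cells in 96-well plates to compound at five concentrations. The concentration for 50% growth inhibition is given as GI50. TGI marks complete inhibition of growth.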

Some test systems named below: OVCAR-5 ovarian; CAKI-1 renal; SK-MEL-2 melanoma; NCI-H522 lung; UACC-62 melanoma; MALME-3M melanoma; 786-0 renal; HT29 colon; ACHN renal; U251 CNS.
What all share (assay): DTP human tumour cell line panel, 48 h

As a reminder, the GI50 is the concentration that inhibits growth by half. Usually TGI stands for the concentration giving total growth inhibition. For the compound `O=C(Nc1ccc(I)cc1)c1cc([N+](=O)[O-])ccc1O`, the GI50 was 27.9 µM in the assay with OVCAR-5 ovarian; 5.39 µM in the assay on CAKI-1 renal; 3.54 µM in the assay on SK-MEL-2 melanoma; 2.92 µM with NCI-H522 lung; 3.38 µM in the assay with UACC-62 melanoma; 19.9 µM with MALME-3M melanoma. Moreover, the GI50 with 786-0 renal was 6.4 µM; in the assay on HT29 colon, 13.3 µM; in the assay with ACHN renal it was 9.28 µM; in the assay with U251 CNS it was 6.4 µM. For the same compound, the concentration for total growth inhibition (TGI) in the assay with OVCAR-5 ovarian was > 100 µM; in the assay on CAKI-1 renal, > 100 µM; in the assay with SK-MEL-2 melanoma, 20.1 µM; with NCI-H522 lung, 15.9 µM; in the assay with UACC-62 melanoma, 14.1 µM; in the assay on MALME-3M melanoma, 70.3 µM. Moreover, the TGI in the assay on 786-0 renal is > 100 µM; in the assay on HT29 colon it was 89.7 µM; in the assay with ACHN renal it was > 100 µM; in the assay on U251 CNS, 66.1 µM.
As to `COc1cc2nc(C)nc(N[C@H](C)c3cc(N)cc(C(F)(F)F)c3)c2cc1O[C@H]1CCOC1`, the GI50 in the assay with OVCAR-5 ovarian is 13.4 µM; in the assay on CAKI-1 renal it was 7.14 µM; in the assay on SK-MEL-2 melanoma, 18 µM; in the assay with NCI-H522 lung, 12.8 µM; in the assay on UACC-62 melanoma, 16.3 µM; with MALME-3M melanoma, 18.2 µM. The GI50 in the assay with 786-0 renal is 9.82 µM; in the assay on HT29 colon, 13.4 µM; in the assay on ACHN renal it was 11.6 µM; in the assay with U251 CNS it was 10.6 µM. The total growth inhibition concentration (TGI) with OVCAR-5 ovarian is 28.5 µM; with CAKI-1 renal, 24.1 µM; in the assay with SK-MEL-2 melanoma, 34.7 µM; with NCI-H522 lung, 29.3 µM; with UACC-62 melanoma, 31 µM; with MALME-3M melanoma it was 33.4 µM. Also, the total growth inhibition concentration (TGI) turned out to be 23.1 µM in the assay with 786-0 renal, 28.4 µM in the assay on HT29 colon, 23.9 µM with ACHN renal and 23.7 µM in the assay with U251 CNS.
`CN(C)CCCNC1=C(Cl)C(=O)c2ccccc2C1=O`: the GI50 was 4.27 µM in the assay on OVCAR-5 ovarian; 7.14 µM in the assay with CAKI-1 renal; 2.11 µM in the assay with SK-MEL-2 melanoma; 2.03 µM with NCI-H522 lung; 1.7 µM with UACC-62 melanoma; 2.06 µM in the assay with MALME-3M melanoma. For the same compound, the GI50 was 11.3 µM in the assay with 786-0 renal, 2.5 µM in the assay with HT29 colon, 4.96 µM in the assay on ACHN renal and 1.83 µM in the assay with U251 CNS. The TGI in the assay with OVCAR-5 ovarian came to 9.63 µM; with CAKI-1 renal, 20.7 µM; in the assay with SK-MEL-2 melanoma it was 4.15 µM; in the assay with NCI-H522 lung it was 3.83 µM; in the assay with UACC-62 melanoma, 3.19 µM; in the assay on MALME-3M melanoma, 3.77 µM. The TGI in the assay on 786-0 renal worked out at 24.2 µM; in the assay with HT29 colon, 5.25 µM; in the assay on ACHN renal, 9.51 µM; in the assay with U251 CNS it was 3.27 µM.
For the compound `C=C(CNCCO)[C@@H]1CC[C@]2(CO)CC[C@]3(C)[C@H](CC[C@@H]4[C@@]5(C)CCC(N)C(C)(C)[C@@H]5CC[C@]43C)[C@@H]12` (stereo not given in full), the GI50 was 5.08 µM in the assay with OVCAR-5 ovarian; 4.86 µM in the assay on CAKI-1 renal; 1.98 µM in the assay on SK-MEL-2 melanoma; 1.93 µM in the assay with NCI-H522 lung; 1.8 µM with UACC-62 melanoma; 1.58 µM in the assay with MALME-3M melanoma. The GI50 in the assay on 786-0 renal was 1.63 µM; in the assay with HT29 colon it was 1.86 µM; in the assay on ACHN renal, 12.2 µM; with U251 CNS, 1.55 µM. For the same compound, the TGI turned out to be 18.1 µM in the assay with OVCAR-5 ovarian; 18.1 µM with CAKI-1 renal; 3.65 µM with SK-MEL-2 melanoma; 3.7 µM in the assay on NCI-H522 lung; 3.36 µM with UACC-62 melanoma; 3.11 µM in the assay with MALME-3M melanoma. The TGI is 3.31 µM with 786-0 renal, 3.89 µM in the assay with HT29 colon, 25 µM with ACHN renal and 2.89 µM in the assay on U251 CNS.
Turning to `CC1(C)OC(=O)C(=Cc2ccc(O)cc2)C(=O)O1`, the total growth inhibition concentration (TGI) in the assay with OVCAR-5 ovarian, with CAKI-1 renal, in the assay with SK-MEL-2 melanoma, in the assay on NCI-H522 lung, in the assay on UACC-62 melanoma and in the assay with MALME-3M melanoma was > 100 µM throughout. Besides, the TGI in the assay on 786-0 renal, in the assay with HT29 colon, in the assay with ACHN renal and with U251 CNS was > 100 µM in each case.
Consider `COc1ccc(NC(=O)c2cc(OC)cc(OC)c2)cc1`, for which the TGI in the assay on OVCAR-5 ovarian was > 100 µM; in the assay with CAKI-1 renal it was > 100 µM; with SK-MEL-2 melanoma, > 100 µM; in the assay with NCI-H522 lung, 83.8 µM; in the assay on UACC-62 melanoma, > 100 µM; in the assay with MALME-3M melanoma it was > 100 µM. Moreover, the TGI is > 100 µM in the assay with 786-0 renal, > 100 µM with HT29 colon, > 100 µM in the assay with ACHN renal and > 61.3 µM in the assay on U251 CNS.
With `C[C@@H](CS(C)(=O)=O)Nc1ncc2cc(Oc3ccc(F)cc3F)c(=O)n(C)c2n1`, the GI50 with OVCAR-5 ovarian, with CAKI-1 renal, in the assay with SK-MEL-2 melanoma, with NCI-H522 lung, in the assay with UACC-62 melanoma and in the assay on MALME-3M melanoma was > 25 µM each time. In addition, the GI50 in the assay with 786-0 renal, in the assay on HT29 colon, in the assay on ACHN renal and with U251 CNS was > 25 µM each time. Besides, the TGI with OVCAR-5 ovarian, with CAKI-1 renal, in the assay with SK-MEL-2 melanoma, with NCI-H522 lung, with UACC-62 melanoma and in the assay with MALME-3M melanoma was > 25 µM throughout. Moreover, the TGI with 786-0 renal, in the assay with HT29 colon, in the assay with ACHN renal and in the assay on U251 CNS was > 25 µM in each case.
With `NS(=O)(=O)c1ccccc1C(=O)N/N=C(\c1nc2ccc([N+](=O)[O-])cc2[nH]c1=O)C(O)c1ccc([N+](=O)[O-])cc1` (stereo not given), the TGI was > 100 µM with OVCAR-5 ovarian; > 100 µM with CAKI-1 renal; > 100 µM in the assay on SK-MEL-2 melanoma; 59.2 µM in the assay on NCI-H522 lung; > 100 µM with UACC-62 melanoma; > 100 µM with MALME-3M melanoma. Also, the TGI with 786-0 renal, in the assay with HT29 colon, with ACHN renal and in the assay with U251 CNS was > 100 µM each time.
For `Nc1ccc(C(=O)N/C(=C\c2ccc3c(c2)OCO3)c2nc3[nH]c(=S)[nH]c(=O)c3[nH]2)cc1`, the TGI in the assay with OVCAR-5 ovarian, with CAKI-1 renal, in the assay on SK-MEL-2 melanoma, with NCI-H522 lung, with UACC-62 melanoma and with MALME-3M melanoma was > 100 µM throughout. Besides, the TGI in the assay on 786-0 renal, in the assay on HT29 colon, in the assay with ACHN renal and in the assay with U251 CNS was > 100 µM in each case.
Consider `CC[C@@]12CCCN3CC[C@]4(c5cccc(OC)c5N(C(C)=O)[C@@H]4CC1)[C@H]32`, for which the TGI in the assay on OVCAR-5 ovarian, in the assay with CAKI-1 renal, in the assay on SK-MEL-2 melanoma, in the assay on NCI-H522 lung, in the assay on UACC-62 melanoma and in the assay with MALME-3M melanoma was > 100 µM each time. The TGI in the assay with 786-0 renal was > 100 µM; with HT29 colon, 44 µM; in the assay on ACHN renal, > 100 µM; in the assay on U251 CNS, > 100 µM.
